Values of other authors, collected in patent US12433928B2, “Therapeutic treatment for the coronavirus disease COVID-19” (priority 2020, dated 2025).

Test system: herpes simplex virus type 1 (HSV-1)
Conditions: certain viruses, e.g. HSV-1 in vitro

Cc1ccc(C(C)C)c(O)c1 [thymol]
antiviral activity in medical studies: antiviral activity and effectiveness
